{"source": "patent US20240360122A1", "about": "“POLYMORPHIC FORMS AND SALTS OF A GLP-1R AGONIST” (Terns (Suzhou) Biotechnology Co., Ltd., priority 2023, published 2024)", "type_in_all_cases": "physicochemical", "key": {"[1]": {"assay": "Chemical stability studies of Compound 1 meglumine salt at high temperatures", "conditions": "solution and solid states"}, "[2]": {"assay": "Kinetic solubility in water and bio-relevant media (SGF, FaSSIF, FeSSIF) at 37° C.", "conditions": "for S: Solubility: calculated by freeform; for FC: Form change: residual solids by XRPD", "description": "Add 4 mL of medium (H2O, SGF, FaSSIF and FeSSIF). • Rolled at 37° C. (˜25 rpm). Sampling at 1, 2, 4 and 24 hrs. • At each time-point, sampled 0.8 mL of solution or suspension into a centrifuge tube prior to centrifugation (12000 rpm, 37° C., 5 min) and filtration through 0.45 μm PTFE membrane. • Tested pH and concentration for the filtrate. Analyze residual solids by XRPD.\n0.1 g of NaCl and 0.05 g of Triton X-100 were weighed into a 50-mL volumetric flask. Purified water was added to dissolve the solid. 67.5 μL HCl (38%, 12M) was added after the solid was dissolved completely. pH was then adjusted to 1.8 using HCl (1 M) or NaOH (1 M). Purified water was added to the volume.\n(§1) 0.17 g of anhydrous NaH2PO4, 0.021 g of NaOH and 0.31 g of NaCl were weighed into a 50-mL volumetric flask. ˜48 mL purified water was added to dissolve the solid. pH was adjusted to 6.5 using 1M HCl or 1M NaOH. Purified water was then added to the volume. 0.11 g of SIF powder was added into the volumetric flask.\nas §1, with “0.41 mL” for “0.17 g”, “acetic acid, 0.20” for “anhydrous NaH2PO4, 0.021”, “0.59” for “0.31”, “5.0” for “6.5”, “0.56” for “0.11”"}, "[3]": {"assay": "pH solubility in pH 1.0-8.0 buffers at RT", "conditions": "thermodynamic from solid; for solubility at 24 h: LOQ = 0.0001 mg/mL; for solubility: pH buffers, 2 and 24 hours", "description": "The procedures were listed below:\n1. […] Add 2 ml, of the corresponding medium.\n2. Mixed well and stirred at RT (1000 rpm). Check the pH and adjust it back to the target pH after dosing.\n3. Sampled after 2 hours and 24 hours. The supernatant was isolated by centrifugation (12000 rpm, 5 min) and filtration (0.22 μm, PTFE) for pH and HPLC test."}, "[4]": {"assay": "Hygroscopicity by DVS at 25° C.", "description": "DVS was measured via a SMS (Surface Measurement Systems) DVS Intrinsic. The relative humidity at 25° C. were calibrated against deliquescence point of LiCl, Mg(NO3)2 and KCl."}, "[5]": {"assay": "Solid state stability at 25° C./60% RH and 40° C./75% RH for 1 week", "description": "Each sample was added into a glass vial, sealed by parafilm with several holes, and kept under tested conditions. After one week, samples were taken for XRPD and HPLC purity test."}, "[6]": {"assay": "Slurry competition among Freeform Type A/C/M", "conditions": "slurry competition in EtOAc and ACN, RT and 50° C.", "description": "The detailed procedures are as following:\n1. […] Add 1 mL corresponding solvent.\n2. Magnetically stirred at RT or 50° C. for 4 hours. Filter through 0.45 μm PTFE filter to obtain clear solution.\n4. Magnetically stirred at RT or 50° C. for 4 days. Tested XRPD of the wet cake."}}, "note": "Entries after “also recorded” stand apart in the source; their conditions may differ. Structures can show the parent of a compound that is named as a salt."}
{"compound": "N#Cc1ccc(COc2cccc(C3CCN(Cc4nc5ccc(C(=O)O)cc5n4Cc4cncs4)CC3)n2)c(F)c1", "note": "[Compound 1 meglumine salt]", "values": [{"measurement": "chemical stability", "setting": "[1]", "result": "generally stable"}]}
{"compound": "N#Cc1ccc(COc2cccc(C3CCN(Cc4nc5ccc(C(=O)O)cc5n4Cc4cncs4)CC3)n2)c(F)c1", "note": "[Freeform Type C]", "values": [{"measurement": "S: Solubility", "setting": "[2]; FaSSIF, 37° C., 1 hr", "result": 2, "unit": "µg/mL"}, {"measurement": "FC: Form change", "setting": "[2]; FaSSIF, 37° C., 1 hr", "result": "No"}, {"measurement": "S: Solubility", "setting": "[2]; FaSSIF, 37° C., 2 hrs", "result": 7, "unit": "µg/mL"}, {"measurement": "FC: Form change", "setting": "[2]; FaSSIF, 37° C., 2 hrs", "result": "No"}, {"measurement": "S: Solubility", "setting": "[2]; FaSSIF, 37° C., 4 hrs", "result": 5, "unit": "µg/mL"}, {"measurement": "FC: Form change", "setting": "[2]; FaSSIF, 37° C., 4 hrs", "result": "No"}, {"measurement": "S: Solubility", "setting": "[2]; FaSSIF, 37° C., 24 hrs", "result": 3, "unit": "µg/mL"}, {"measurement": "FC: Form change", "setting": "[2]; FaSSIF, 37° C., 24 hrs", "result": "No"}, {"measurement": "FC: Form change", "setting": "[2]; FeSSIF, 37° C., 1 hr", "result": "No"}, {"measurement": "FC: Form change", "setting": "[2]; FeSSIF, 37° C., 2 hrs", "result": "No"}, {"measurement": "FC: Form change", "setting": "[2]; FeSSIF, 37° C., 4 hrs", "result": "No"}, {"measurement": "S: Solubility", "setting": "[2]; FeSSIF, 37° C., 24 hrs", "result": 8, "unit": "µg/mL"}, {"measurement": "FC: Form change", "setting": "[2]; FeSSIF, 37° C., 24 hrs", "result": "No"}, {"measurement": "S: Solubility", "setting": "[2]; H2O, 37° C., 1 hr", "result": 20, "unit": "µg/mL"}, {"measurement": "FC: Form change", "setting": "[2]; H2O, 37° C., 1 hr", "result": "No"}, {"measurement": "S: Solubility", "setting": "[2]; H2O, 37° C., 2 hrs", "result": 27, "unit": "µg/mL"}, {"measurement": "FC: Form change", "setting": "[2]; H2O, 37° C., 2 hrs", "result": "No"}, {"measurement": "S: Solubility", "setting": "[2]; H2O, 37° C., 4 hrs", "result": 20, "unit": "µg/mL"}, {"measurement": "FC: Form change", "setting": "[2]; H2O, 37° C., 4 hrs", "result": "No"}, {"measurement": "S: Solubility", "setting": "[2]; H2O, 37° C., 24 hrs", "result": 8, "unit": "µg/mL"}, {"measurement": "FC: Form change", "setting": "[2]; H2O, 37° C., 24 hrs", "result": "No"}, {"measurement": "S: Solubility", "setting": "[2]; SGF, 37° C., 1 hr", "result": 83, "unit": "µg/mL"}, {"measurement": "FC: Form change", "setting": "[2]; SGF, 37° C., 1 hr", "result": "No"}, {"measurement": "S: Solubility", "setting": "[2]; SGF, 37° C., 2 hrs", "result": 72, "unit": "µg/mL"}, {"measurement": "FC: Form change", "setting": "[2]; SGF, 37° C., 2 hrs", "result": "No"}, {"measurement": "S: Solubility", "setting": "[2]; SGF, 37° C., 4 hrs", "result": 75, "unit": "µg/mL"}, {"measurement": "FC: Form change", "setting": "[2]; SGF, 37° C., 4 hrs", "result": "No"}, {"measurement": "S: Solubility", "setting": "[2]; SGF, 37° C., 24 hrs", "result": 78, "unit": "µg/mL"}, {"measurement": "FC: Form change", "setting": "[2]; SGF, 37° C., 24 hrs", "result": "No"}, {"measurement": "form change of residual solids (XRPD) after solubility test", "setting": "[2]; all the media (H2O, SGF, FaSSIF, FeSSIF), after 24 hrs", "result": "No form change"}, {"measurement": "solubility compared with the other selected salts", "setting": "[2]; all the media, 37° C.", "result": "lowest solubility"}, {"measurement": "solubility at 24 h", "setting": "[3]; pH 1.0 buffer, pH 1, aqueous buffer", "result": 130, "unit": "µg/mL"}, {"measurement": "solubility at 24 h", "setting": "[3]; pH 2.0 buffer, pH 2, aqueous buffer", "result": 17, "unit": "µg/mL"}, {"measurement": "solubility", "setting": "[3]; pH 1, aqueous buffer, pH 1.0 buffer", "result": "≥ 130", "unit": "µg/mL"}, {"measurement": "solubility", "setting": "[3]; pH 2, aqueous buffer, pH 2.0˜8.0 buffers", "result": "≤ 34", "unit": "µg/mL"}, {"measurement": "water uptake (DVS)", "setting": "[4]; 25° C./80% RH", "result": 0.12, "unit": "%"}, {"measurement": "hygroscopicity", "setting": "[4]; DVS, 25° C.", "result": "non-hygroscopic"}, {"measurement": "Water uptake at 25° C./80% RH", "setting": "[4]; DVS, 25° C./80% RH", "result": 0.12, "unit": "wt %"}, {"measurement": "For change after DVS", "setting": "[4]; XRPD after DVS test", "result": "No"}, {"measurement": "form change after DVS test (XRPD)", "setting": "[4]; after DVS test", "result": "no form change"}, {"measurement": "Form change", "setting": "[5]; 25° C./60% RH/Open/1 week", "result": "No"}, {"measurement": "Purity", "setting": "[5]; 25° C./60% RH/Open/1 week", "result": 96.58, "unit": "Area %"}, {"measurement": "solid-state stability: form change and purity decrease", "setting": "[5]; 25° C./60% RH/open and 40° C./75% RH/open, 1 week", "result": "no form change or significant purity decrease"}, {"measurement": "Form change", "setting": "[5]; 40° C./75% RH/Open/1 week", "result": "No"}, {"measurement": "Purity", "setting": "[5]; 40° C./75% RH/Open/1 week", "result": 96.69, "unit": "Area %"}, {"measurement": "Purity", "setting": "[5]; Initial", "result": 96.59, "unit": "Area %"}, {"measurement": "thermodynamic stability relationship among freeform anhydrates", "setting": "[6]", "result": "thermodynamically more stable anhydrate; also recorded: thermodynamically more stable form"}]}
